What was measured:
[1] = system: Drosophila melanogaster; test: Antiproliferative activity against Drosophila melanogaster Kc167 cells after 48 hrs; format: functional
[2] = Toxicity in rat; format: organism-based; conditions: in vivo
[3] = system: Drosophila melanogaster; test: Induction of nuclear damage in Drosophila melanogaster Kc167 cells after 6 hrs; format: functional

SMILES: C/C=C(\C)C(=O)O[C@H]1C[C@@H](OC(C)=O)[C@@]2(C(=O)OC)CO[C@H]3[C@@H](O)[C@@](C)([C@]45O[C@@]4(C)[C@@H]4C[C@H]5O[C@@H]5OC=C[C@@]54O)[C@H]4[C@]1(CO[C@]4(O)C(=O)OC)[C@@H]32 [AZADIRACHTIN A]
- inhibition [1]: Dose-dependent effect
- LD50 [2]: > 3540 mg/kg
- inhibition [3]: Dose-dependent effect

Source: ChEMBL document CHEMBL1158376, “Azadirachtin, a scientific gold mine” (Bioorg Med Chem, 2009)
